The results in this text go back to patent US20250051324A1, “PARP INHIBITOR, PHARMACEUTICAL COMPOSITION COMPRISING SAME, AND USE THEREOF” (KEYTHERA (SUZHOU) BIO-PHARMACEUTICALS CO., LIMITED, priority 2021, published 2025).

pIC50: −log10 of the molar value. Where two headings read alike, the source gives them in different places.

The target of data set [1] is T1, PARP1 (Homo sapiens (Human), UniProt P09874). Kind of data set: PARP enzyme activity assay (PARP1 chemiluminescent assay kit). The data set is classed as biochemical. Particulars: enzyme inhibitory activity, read-out: PARP-1 IC50. The text has this:
Experimental Materials: The PARP1 assay kit was purchased from BPS Bioscience, USA, specifically the 384-well chemiluminescent assay kit (Catalog No.: #80551).
Experimental Principle: PARP can catalyze the transfer of ADP-ribose residues from NAD+ to target substrates, thereby modifying proteins through ribosylation. This experiment measures PARP1 enzyme activity by detecting the poly(ADP-ribosylation) of histones by PARP1.
Preparation of Reagents and Test Compounds: The 10× assay buffer included in the kit was diluted to 1× with distilled water. The test compound (stock concentration of 10 mM) was diluted to 10 μM with a DMSO solution and then serially diluted in a 1:3 ratio. The serially diluted compounds were further diluted 10-fold with the 1× assay buffer.
Experimental Method: The procedure was carried out according to the kit's instructions:
1. The 5× histone mixture was diluted to 1× with PBS, and 25 μL was added to each well of a 384-well plate, incubating overnight at 4° C.
2. After incubation, 100 μL of PBST (0.05% Tween 20) was added to each well for washing, repeated three times. Then, 100 μL of blocking solution was added to each well and incubated at room temperature for 90 minutes.
3. After incubation, the wells were washed three times with PBST, and then 1.25 μL of 10× assay buffer, 1.25 μL of 10×PARP assay mixture, 2.5 μL of activation DNA (5×), and 7.5 μL of distilled water were added to each well.
4. […] The positive control group and the negative control group were added with 1× assay buffer containing the same concentration of DMSO.
5. Next, 10 μL of 2.5 ng/μL PARP1 enzyme was added to the test compound and positive control groups, while 10 μL of 1× assay buffer was added to the negative control group, and the mixture was incubated at room temperature for 60 minutes.
6. Streptavidin-HRP was diluted 1:50 with the blocking solution. After incubation, the plate was washed three times with PBST, and 25 μL of the diluted streptavidin-HRP solution was added to each well, incubating at room temperature for 30 minutes.
7. After incubation, the plate was washed three times with PBST, and 50 μL of the mixed substrate A and substrate B in equal volumes was added. The luminescence signal was immediately read on a Synergy HTX multi-mode reader.
8. Data analysis was performed using GraphPad Prism 8.0 software. The inhibition rate %=100*(average luminescence signal of the positive control group−luminescence signal of the compound)/(average luminescence signal of the positive control group−average luminescence signal of the negative control group). The IC50 value was obtained by plotting the logarithm of the compound concentration against the percentage inhibition rate.

The test system of data set [2] is UWB1.289 ovarian cancer cells. Briefly: Cell proliferation assay, UWB1.289. The data set is classed as cell-based. Particulars: UWB1289, 168 h, read-out: UWB1.289 Cell IC50. On the procedure:
(§1) Experimental Materials: MDA-MB-436 or UWB1.289 cell lines were purchased from Cobioer Biosciences Co. Ltd. (Nanjing, China). The STR identification results were a complete match, and mycoplasma testing was negative. MDA-MB-436 cells were cultured in DMEM complete medium containing 10% fetal bovine serum, 1% penicillin-streptomycin, 1% insulin, and 16 μg/mL glutathione; UWB1.289 cells were cultured in RMPI1640 complete medium containing 10% fetal bovine serum and 1% penicillin-streptomycin.
(§2) 1. MDA-MB-436 or UWB1.289 cells were cultured in the aforementioned medium (culture conditions: 37° C., 5.0% CO2 in air) until they reached the logarithmic growth phase. The cells were then digested with trypsin containing 0.25% EDTA, centrifuged at 1000 rpm, and the supernatant was discarded. Cell culture medium was added, and the cell suspension was adjusted to 2×10^4/mL after counting. 135 μL of the cell suspension per well was taken and cultured in a 96-well cell culture plate for 16 hours (culture conditions: 37° C., 5.0% CO2 in air).
(§3) 2. The test compounds, stored at a concentration of 10 mM, were diluted 2.5 times with DMSO and then serially diluted in a 1:3 gradient (9 gradients). The gradient-diluted samples were further diluted 40 times with serum-free medium, and 15 μL of each was added to the 96-well cell culture plate. The positive control group received serum-free medium containing the same concentration of DMSO, and the negative control group received medium without cells. The cells were then cultured for an additional 7 days.
(§4) 3. After the culture period, the cell culture plate was placed at room temperature for 30 minutes. Then, 100 μL of CellCounting-Lite 2.0 reagent (Vazyme, #DD1101) was added to each well, mixed thoroughly, and incubated in the dark at room temperature for 10 minutes. The luminescence signal was read using a Synergy HTX multi-mode reader.
(§5) 4. Data analysis was performed using GraphPad Prism 8.0 software. The inhibition rate (%) was calculated as 100*(average luminescence signal of the positive control group−luminescence signal of the compound)/(average luminescence signal of the positive control group−average luminescence signal of the negative control group). The IC50 value was obtained by plotting the logarithm of the compound concentration against the percentage inhibition rate.

A short description of data set [3]: Evaluation of pharmacokinetics in mice. Particulars: male, ICR (CD1), mouse, plasma, po, 10 mg/kg.
Protocol: Test Objective: The pharmacokinetics of the example compounds of the present application were tested in mice. By measuring the drug concentration in mouse plasma, the pharmacokinetic behavior of the compounds of the present invention was studied to evaluate their pharmacokinetic characteristics.
Test Animals: 6-8 Week Old Male ICR (CD1) Mice
Oral Gavage Drug Preparation: An appropriate amount of the test compound was first weighed and dissolved in DMSO (Macklin cas: 67-68-5) to prepare a 20 mg/mL solution. Then, 75 μL of this solution was added to 150 μL of Solutol (Sigma cas: 70142-34-6), followed by 1.275 mL of 20% Captisol (Selleck cas: 182410-00-0), resulting in a final drug concentration of 1 mg/mL.
Intravenous Injection Drug Preparation: An appropriate amount of the test compound was first weighed and dissolved in DMSO (Macklin cas: 67-68-5) to prepare a 30 mg/mL solution. Then, 15 μL of this solution was added to 150 μL of Solutol (Sigma cas: 70142-34-6), followed by 1.335 mL of 20% Captisol (Selleck cas: 182410-00-0), resulting in a final drug concentration of 0.3 mg/mL.
Procedures: The mice were fasted overnight with free access to water before the experiment. Food was restored two hours after dosing. Blood samples were collected at different time points after intravenous injection or oral gavage of the test compound in mice, and the compound concentration in plasma was measured. Approximately 50 μL of blood was collected from each animal using a capillary sampling tube via the orbital venous plexus, with heparin sodium as an anticoagulant. Blood samples were placed on ice, centrifuged at 3500 r/min for 10 minutes to separate the plasma, and 20 μL of the collected plasma was added to 200 μL of acetonitrile (Merck cas: 75-05-8) containing 200 nM dexamethasone (Selleck cas: 50-02-2) as an internal standard. The mixture was centrifuged at 8000 r/min for 20 minutes. After centrifugation, 150 μL of the supernatant was transferred to a new centrifuge tube, and 150 μL of 0.1% formic acid (Fisher cas: 207868) was added. The mixture was mixed well, and 5 μL of the sample was subjected to quantitative analysis by liquid chromatography-mass spectrometry (Q-TOF LC/MS).
The test compound was serially diluted with DMSO to cover the compound concentrations expected in plasma samples to be tested, with a blank sample (containing only DMSO) included.
2 μL of each diluted sample at various concentrations was added to 18 μL of normal ICR mouse plasma, mixed, and then added to 200 μL of acetonitrile (Merck cas: 75-05-8) containing 200 nM dexamethasone (Selleck cas: 50-02-2) as an internal standard. The mixture was centrifuged for 20 minutes (8000 r/min). 150 μL of the supernatant was transferred to a new centrifuge tube, and 150 μL of 0.1% formic acid (Fisher cas: 207868) was added. The mixture was mixed well, and 5 μL of the sample was subjected to quantitative analysis by liquid chromatography-mass spectrometry (Q-TOF LC/MS).
The final standard curve was plotted using the concentration of the test compound after dilution on the abscissa and the ratio of the signal of the compound to the internal standard (dexamethasone) on the ordinate. The standard curve was generated using linear regression with GraphPad Prism 8 software (R2>0.9900).
Data Analysis: calculation of pharmacokinetic parameters: the concentration of the test compound in plasma at different time points after intravenous injection or oral gavage in ICR mice was determined based on the above standard curve, and pharmacokinetic parameters (T1/2, Cmax, AUC, etc.) were calculated using the Phoenix WinNonlin 8.1 non-compartmental analysis model.
A short description of data set [4]: Liver microsome metabolism assay. Particulars: CD1, mouse, liver microsomes.
Protocol: Experimental Materials: Mixed CD1 mouse liver microsomal enzyme protein was purchased from Xenotech (#M1000), and NADPH was purchased from Abmole (#M9076).
1. To the liver microsomal enzyme reaction system, 210 μL of phosphate buffer was added, followed by 12.5 μL of liver microsomal enzyme at a concentration of 20 mg/mL. Then, 25 μL of NADPH at a concentration of 10 mM was added to the system, mixed well, and incubated in a 37° C. water bath with shaking for 10 minutes.
2. The test compound, stored at a concentration of 10 mM, was diluted to 100 μM with DMSO. Then, 2.5 μL of the diluted test compound was added to the reaction system, mixed well, and incubated in a 37° C. water bath with shaking.
3. At 0.5, 5, 10, 20, 30, and 60 minutes, 25 μL of the enzyme reaction mixture was taken and added to 125 μL of cold acetonitrile containing dexamethasone as an internal standard. The mixture was centrifuged at 4000 g for 20 minutes, and the supernatant was mixed with an equal volume of distilled water. The mixed sample was then subjected to quantitative analysis by liquid chromatography-mass spectrometry.
4. Calculation of in vitro drug metabolism half-life and drug clearance rate:
t1/2=−0.693/k. (k: the slope of the linear regression of the natural logarithm of the percentage of drug remaining versus incubation time).
The target of data set [5] is T1, PARP1. Kind of data set: PARP1 trapping assay. The data set is classed as biochemical. The following applies: read-out: Inhibitory Effect on PARP1 Trapping IC50. On the procedure:
[table] […] 1. A 4× enzyme reaction mixture, comprising PARP1, PARP2, and GST-Tb antibody, was prepared with the buffer and 4 μL of the enzyme reaction mixture was added to a 384-well plate. 2. A 4×PARP1 and PARP2 probe reaction mixture was prepared with the buffer and 4 μL of the probe reaction mixture was added to the 384-well plate. 3. A series of gradient-diluted compounds were prepared and 4 μL of the diluted compounds were added to the 384-well plate, and incubated at room temperature for 45 minutes. 4. After incubation, 4 μL of 4×NAD reaction mixture was added to the 384-well plate and incubated at room temperature for 10 minutes. 5. After incubation, the plate was read using a plate reader. 6. Data Analysis: The percentage inhibition rate was calculated as follows: Inhibition Rate (%)=(Reading of Compound Group−Reading of Blank Group)/(Reading of Vehicle Control Group−Reading of Blank Group).

Data set [6] deals with MDA-MB-436 breast cancer cells. Briefly: Cell proliferation assay, MDA-MB-436. The data set is classed as cell-based. Particulars: Homo sapiens, MDA-MB-436, 168 h, read-out: MDA-MB-436 Cell IC50. The protocol:
as §1, §2, §3, §4, §5

T1 sequence (P09874 whole entry): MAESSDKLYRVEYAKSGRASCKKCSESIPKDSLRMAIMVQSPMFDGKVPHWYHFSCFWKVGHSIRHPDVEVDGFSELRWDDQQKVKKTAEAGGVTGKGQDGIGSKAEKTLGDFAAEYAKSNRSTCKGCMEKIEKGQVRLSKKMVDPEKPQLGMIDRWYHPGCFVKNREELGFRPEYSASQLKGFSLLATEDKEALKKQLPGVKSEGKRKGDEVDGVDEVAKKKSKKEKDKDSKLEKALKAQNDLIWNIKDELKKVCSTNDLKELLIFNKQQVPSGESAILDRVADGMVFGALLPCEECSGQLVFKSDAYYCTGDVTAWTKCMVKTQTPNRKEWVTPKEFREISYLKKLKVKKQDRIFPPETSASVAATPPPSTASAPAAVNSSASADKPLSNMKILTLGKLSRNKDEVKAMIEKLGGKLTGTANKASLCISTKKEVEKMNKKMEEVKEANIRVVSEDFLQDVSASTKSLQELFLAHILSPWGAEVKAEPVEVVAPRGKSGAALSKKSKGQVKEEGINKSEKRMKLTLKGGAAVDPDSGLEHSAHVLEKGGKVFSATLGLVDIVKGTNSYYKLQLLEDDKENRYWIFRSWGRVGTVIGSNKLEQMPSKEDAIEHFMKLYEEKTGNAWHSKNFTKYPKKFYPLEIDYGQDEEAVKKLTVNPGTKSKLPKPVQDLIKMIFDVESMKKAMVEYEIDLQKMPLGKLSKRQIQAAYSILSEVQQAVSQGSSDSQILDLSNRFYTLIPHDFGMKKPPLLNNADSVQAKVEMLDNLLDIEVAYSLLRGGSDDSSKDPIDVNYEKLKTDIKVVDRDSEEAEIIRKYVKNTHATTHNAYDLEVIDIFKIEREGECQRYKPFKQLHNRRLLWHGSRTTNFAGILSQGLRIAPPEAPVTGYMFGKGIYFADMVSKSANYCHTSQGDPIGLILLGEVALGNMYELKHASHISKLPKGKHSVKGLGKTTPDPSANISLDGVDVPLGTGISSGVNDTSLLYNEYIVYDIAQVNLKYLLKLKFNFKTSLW

In the case of `CNC(=O)c1ccc(N2CCN(Cc3cnc4c(C)c(C(F)(F)F)c(=O)[nH]c4c3)C(COC)C2)cn1` (stereo not shown) [Compound 8, 5-(3-(methoxymethyl)-4-((8-methyl-6-oxo-7-(trifluoromethyl)-5,6-dihydro-1,5-naphthyridin-3-yl)methyl)piperazin-1-yl)-N-methylpicolinamide], the negative logarithm of the IC50 (pIC50) on PARP1 [1] is 8.59; in data set [2] (proliferation, 7 days), 7.90.

Turning to `CNC(=O)c1ccc(N2CCN(Cc3cnc4c(C)c(C(F)(F)F)c(=O)[nH]c4c3)CC2C)cn1` (stereo not shown) [Compound 10, N-methyl-5-(2-methyl-4-((8-methyl-6-oxo-7-(trifluoromethyl)-5,6-dihydro-1,5-naphthyridin-3-yl)methyl)piperazin-1-yl)picolinamide], the pIC50 is 8.55 on PARP1 [1] and 7.82 in data set [2] (proliferation, 7 days).

As to `CNC(=O)c1ccc(N2CCN(Cc3cnc4c(C)c(C(F)(F)F)c(=O)[nH]c4c3)C(C)C2)cn1` (stereo not shown) [Compound 11, N-methyl-5-(3-methyl-4-((8-methyl-6-oxo-7-(trifluoromethyl)-5,6-dihydro-1,5-naphthyridin-3-yl)methyl)piperazin-1-yl)picolinamide], in data set [3], the AUC(0-inf) was 1500 µg·h/mL, the highest level (Cmax) was 55900 ng/mL and the half-life was 18.9 h. For the same compound, the pIC50 on PARP1 [1] was 9.02. Further, the negative-log IC50 (pIC50) in data set [2] (proliferation, 7 days) is 7.55.

For `CNC(=O)c1ccc(N2CC3CCC(C2)N3Cc2cnc3c(C)c(C(F)(F)F)c(=O)[nH]c3c2)cn1` [Compound 12, N-methyl-5-(8-((8-methyl-6-oxo-7-(trifluoromethyl)-5,6-dihydro-1,5-naphthyridin-3-yl)methyl)-3,8-diazabicyclo[3.2.1]octan-3-yl)picolinamide], the pIC50 on PARP1 [1] was 8.65.

In the case of `CNS(=O)(=O)c1ccc(N2CCN(Cc3cnc4c(C)c(C(F)(F)F)c(=O)[nH]c4c3)CC2)cc1` [Compound 13, N-methyl-4-(4-((8-methyl-6-oxo-7-(trifluoromethyl)-5,6-dihydro-1,5-naphthyridin-3-yl)methyl)piperazin-1-yl)benzenesulfonamide], the pIC50 on PARP1 [1] is 8.13.

With `Cc1c(C(F)(F)F)c(=O)[nH]c2cc(CN3CCN(c4ccc5[nH]c(=O)[nH]c5n4)CC3)cnc12` [Compound 18, 4-methyl-7-((4-(2-oxo-2,3-dihydro-1H-imidazo[4,5-b]pyridin-5-yl)piperazin-1-yl)methyl)-3-(trifluoromethyl)-1,5-naphthyridin-2(1H)-one], at PARP1 [1], the negative-log IC50 (pIC50) is 7.80.

In the case of `Cc1c(C(F)(F)F)c(=O)[nH]c2cc(CN3CCN(c4ncc(C(F)(F)F)cn4)CC3)cnc12` [Compound 19, 4-methyl-3-(trifluoromethyl)-7-((4-(5-(trifluoromethyl)pyrimidin-2-yl)piperazin-1-yl)methyl)-1,5-naphthyridin-2(1H)-one], the negative logarithm of the IC50 (pIC50) at PARP1 [1] was 8.26.

On to `Cc1c(C(F)(F)F)c(=O)[nH]c2cc(CN3CCN(c4ccc(C#N)cn4)CC3)cnc12` [Compound 20, 6-(4-((8-methyl-6-oxo-7-(trifluoromethyl)-5,6-dihydro-1,5-naphthyridin-3-yl)methyl)piperazin-1-yl)nicotinonitrile], for which the pIC50 on PARP1 [1] was 8.90; in data set [2] (proliferation, 7 days), 7.58.

As for `CNC(=O)c1ccc(N2CCN(Cc3cnc4c(C)c(C(F)(F)F)c(=O)[nH]c4c3)C[C@@H]2C)cn1` [Compound 53, (S)—N-methyl-5-(2-methyl-4-((8-methyl-6-oxo-7-(trifluoromethyl)-5,6-dihydro-1,5-naphthyridin-3-yl)methyl)piperazin-1-yl)picolinamide], in data set [2] (proliferation, 7 days), the pIC50 was 7.87.

With `CNC(=O)c1ccc(C2CCN(Cc3cnc4c(C)c(C(F)(F)F)c(=O)[nH]c4c3)CC2)cn1` [Compound 71, N-methyl-5-(1-((8-methyl-6-oxo-7-(trifluoromethyl)-5,6-dihydro-1,5-naphthyridin-3-yl)methyl)piperidin-4-yl)picolinamide], the negative logarithm of the IC50 (pIC50) in data set [2] (proliferation, 7 days) was 8.09.

`Cc1c(C(F)(F)F)c(=O)[nH]c2cc(CN3CCN(c4cc5c(cn4)C(=O)N(C)C5)CC3)cnc12` [Compound 84, 4-methyl-7-((4-(2-methyl-3-oxo-2,3-dihydro-1H-pyrrolo[3,4-c]pyridin-6-yl)piperazin-1-yl)methyl)-3-(trifluoromethyl)-1,5-naphthyridin-2(1H)-one]: the intrinsic clearance (microsomal CLint) at 1 µM in data set [4] came out at 0.72 µL/min/mg.

On to `CNC(=O)c1ccc(N2CCN(Cc3cnc4c(C)c(C(F)(F)F)c(=O)[nH]c4c3)CC2)c(F)n1` [Compound 93, 6-fluoro-N-methyl-5-(4-((8-methyl-6-oxo-7-(trifluoromethyl)-5,6-dihydro-1,5-naphthyridin-3-yl)methyl)piperazin-1-yl)picolinamide], for which, on PARP1 [5], the pIC50 was 8.88. In data set [3], this compound had an AUC(0-inf) of 796 µg·h/mL, a Cmax of 31900 ng/mL and a half-life of 18.4 h. Moreover, the pIC50 in data set [2] is 8.57. For the same compound, the negative-log IC50 (pIC50) in data set [6] is 9.08.

On to `Cc1c(C(F)(F)F)c(=O)[nH]c2cc(CN3CCN(c4ccc(C(=O)NC5CC5)nc4)CC3)cnc12` [Compound 99, N-cyclopropyl-5-(4-((8-methyl-6-oxo-7-(trifluoromethyl)-5,6-dihydro-1,5-naphthyridin-3-yl)methyl)piperazin-1-yl)picolinamide], for which the pIC50 on PARP1 [5] was 8.82; in data set [6] (proliferation, 7 days), 8.77.

For the compound `CNC(=O)c1ccc(N2CCN(Cc3cnc4c(C)c(C(F)F)c(=O)[nH]c4c3)CC2)cn1` [Compound 100, 5-(4-((7-(difluoromethyl)-8-methyl-6-oxo-5,6-dihydro-1,5-naphthyridin-3-yl)methyl)piperazin-1-yl)-N-methylpicolinamide], the negative logarithm of the IC50 (pIC50) was 8.59 at PARP1 [5] and 8.69 in data set [6].
